Blank lines part the entries; values can stand above or below the compound they belong to.
What was measured:
[1] = Simulated Hand Stirring Test (calcium sedimentation after stirring a unit dose in water); assay type: physicochemical; settings: for calcium base reacts fast enough with the acid for minimal calcium sedimentation: with appropriate amount of sugar, stirred for less than about 60 seconds by hand; for Sweetener/calcium ratio to pass 60-second Simulated Hand Stirring Test: calcium hydroxide providing 300 mg calcium per unit dose, citric acid 0.96 gram per unit dose, 200 ml water at 25° C., 200 rpm; for Acid required/Dose: citric acid to pass 60-second test
Description: A magnetic stir bar (9.5×50.8 mm, catalogue no. 58948-980, VWR Spinbar®, USA) is placed in a 250-ml Pyrex® beaker (catalogue no. 1000-250, Corning, USA) to which 200 ml of water at 25° C. is added. The beaker is placed on top of a digital magnetic stirrer (Cole Parmer, USA) and the speed set at 200 rpm. A unit dose of a powdered mix is then added to the water and stirred for a given period of time, after which the beaker is removed and calcium sedimentation evaluated on a 1-10 scale, with 1 denoting no visible calcium sedimentation. A rating of 2 denoting very minimal calcium sedimentation, which is visually acceptable, is set as the minimum dissolution criterion.
Hereafter, this test will be referred to as the “Simulated Hand Stirring Test”. When the stirring time is 60 seconds, the test is referred to as the “60-second Simulated Hand Stirring Test”.

[2] = Solubility in water; assay type: physicochemical
[3] = cited from earlier work

Sweetener/calcium ratio to pass 60-second Simulated Hand Stirring Test [1]: 95
SMILES: OC[C@@H](O)[C@@H](O)[C@H](O)[C@@H](O)CO [Sorbitol, reference compound]

Sweetener/calcium ratio to pass 60-second Simulated Hand Stirring Test [1]: 60
SMILES: OC[C@H]1O[C@@](CO)(O[C@H]2O[C@H](CO)[C@@H](O)[C@H](O)[C@H]2O)[C@@H](O)[C@@H]1O [Sucrose]

times more soluble than calcium hydroxide [2]: about 300 times
SMILES: O=C(O)CC(O)C(=O)O (stereo not drawn) [malic acid]

More lines, now with the values behind:

SMILES: [Ca+2].[OH-].[OH-] [Calcium hydroxide]
calcium base reacts fast enough with the acid for minimal calcium sedimentation [1]: will react fast enough

SMILES: [O]=[Ca] [Calcium oxide, reference compound]
calcium base reacts fast enough with the acid for minimal calcium sedimentation [1]: may not react fast enough

SMILES: O=C(CO)[C@@H](O)[C@H](O)[C@H](O)CO [Fructose]
Sweetener/calcium ratio to pass 60-second Simulated Hand Stirring Test [1]: 45 | Acid required/Dose ([1]; fructose On Mesh 20 (> 841 micron), 22 g fructose/dose, 500 mg calcium/dose): 2.0 | Acid required/Dose ([1]; fructose On Mesh 20, 6 g fructose/dose, 150 mg calcium/dose): 0.5 | Acid required/Dose ([1]; fructose On Mesh 20, 16 g fructose/dose, 300 mg calcium/dose): 1.0 | Acid required/Dose ([1]; fructose Through mesh 40 (< 420 micron), 22 g fructose/dose, 500 mg calcium/dose): 2.0 | Acid required/Dose ([1]; fructose Through mesh 40, 6 g fructose/dose, 150 mg calcium/dose): 0.5 | Acid required/Dose ([1]; fructose Through mesh 40, 16 g fructose/dose, 300 mg calcium/dose): 1.0

SMILES: O=C(O)/C=C/C(=O)O [Fumaric acid, reference compound]
calcium sedimentation with fumaric acid as the acid ([1]; 555 mg calcium hydroxide (300 mg calcium), 26 grams sucrose, fumaric acid at three times the stoichiometric amount): significant calcium sedimentation | times more soluble than calcium hydroxide [2]: about four | solubility in water [3]: 0.63 gram per 100 ml of water

Reference: patent US6833146B2, “Powered beverage mix with rapidly dissolving calcium” (Unilab Pharmatech, Ltd., priority 2002, dated 2004)
